Laboratory results reported in patent publication US20090061000A1, “PHARMACEUTICAL FORMULATION USE 030” (AstraZeneca AB, priority 2007, published 2009).

Key:
CYP2C9 = molecular target: T1, CYP2C9 (Homo sapiens, UniProt P11712); assay: Cocktail drug-drug interaction study: tolbutamide pharmacokinetics as probe of CYP2C9 activity; format: in vivo; conditions: co-administration of 500 mg Compound A with tolbutamide 500 mg
T1 construct: from tissue
From the text: 24 healthy male subjects aged between 20 and 43 years received the following dosing regimens in random order: • 1.
The three treatments were separated by a wash-out period of 7 to 21 days.

thrombin = thrombin (Homo sapiens, UniProt P00734); conditions: free amidine metabolite of Compound A; cited from earlier work

T1 sequence (P11712 whole entry): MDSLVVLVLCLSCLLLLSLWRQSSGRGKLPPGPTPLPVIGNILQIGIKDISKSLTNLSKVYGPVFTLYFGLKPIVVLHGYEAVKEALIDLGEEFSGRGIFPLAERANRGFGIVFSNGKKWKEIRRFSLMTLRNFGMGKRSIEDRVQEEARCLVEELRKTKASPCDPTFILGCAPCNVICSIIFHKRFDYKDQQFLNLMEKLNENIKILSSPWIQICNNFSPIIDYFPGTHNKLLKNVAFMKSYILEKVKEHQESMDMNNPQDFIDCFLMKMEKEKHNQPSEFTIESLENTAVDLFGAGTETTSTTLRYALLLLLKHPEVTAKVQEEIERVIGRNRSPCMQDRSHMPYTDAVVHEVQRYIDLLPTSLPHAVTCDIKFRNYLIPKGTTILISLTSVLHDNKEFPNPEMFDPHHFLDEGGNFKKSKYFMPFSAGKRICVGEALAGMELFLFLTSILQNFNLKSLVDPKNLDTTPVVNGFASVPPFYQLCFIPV

SMILES	effect on CYP2C9 activity (influence on the pharmacokinetics of tolbutamide) (CYP2C9)	inhibition of thrombin (thrombin)
CO/N=C(\N)c1ccc(CNC(=O)[C@@H]2CCN2C(=O)[C@H](O)c2cc(Cl)cc(OC(F)F)c2)cc1 [Compound A, Ph(3-Cl)(5-OCHF2)—(R)CH(OH)C(O)—(S)Aze-Pab(OMe)]	no effect	
N=C(N)c1ccc(CNC(=O)[C@@H]2CCN2C(=O)[C@H](O)c2cc(Cl)cc(OC(F)F)c2)cc1 [Compound C, Ph(3-Cl)(5-OCHF2)—(R)CH(OH)C(O)—(S)Aze-Pab]		has been found to inhibit thrombin
